The text below walks through data of US4219657A, “Dibenzothiophenes” (Hoffmann-La Roche Inc., priority 1977, dated 1980).

Assay [1] concerns Albino rats of Hart Strain. The experiment in a line: anti-inflammatory activity, volume of edema after Mycobacterium butyricum adjuvant injected into the right hind foot. In kind it is in vivo. To be noted: Rattus norvegicus, po, dosage of 0.03 gm. p.o., treated daily for 5 consecutive days, edema 96 hours after adjuvant, read-out: ED30 (dose required to produce a 30% reduction in edema). How it is done: The test animals are given 10 mls. of vehicle^1, which contains the test compound per kg. of body weight. The animals are treated daily for 5 consecutive days. Three hours after the first treatment, 0.05 ml. of an 0.5% suspension of heat killed dessiccated Mycobacterium butyricum in U.S.P. olive oil, which has been steam sterilized for 30 minutes, is injected into the right hind foot of each rat. The paw volume is measured immediately after the injection of the adjuvant and again 96 hours later. The difference is recorded as volume of edema. The paw volume is measured by immersion of the paw into a column of mercury to an ink mark exactly at the level of the lateral malleolus. Percent inhibition is calculated by dividing the average control edema minus the average treatment edema by the average control edema times 100. The percent inhibition is plotted against dose on semi-logarithmic probability paper and the dose required to produce a 30% reduction in edema is estimated therefrom and is expressed as ED30.
^1 Hilgar, A. G. and Hummel, D. J.: Endocrine Bioassay Data. No. 1, p. 15, August 1964 (Cancer Chemotherapy National Service Center, N.I.H.)

The subject of another assay is mice. The experiment in a line: analgesic activity, reaction time of mice on a hot plate. In kind it is in vivo. As to conditions: Mus musculus; male mice; oral; hot plate 55±0.5° C.; combined reaction time average at 30, 60 and 90 minutes. How it is done: The method determines the reaction time of mice dropped onto a hot plate maintained at 55±0.5° C. Six groups of male mice (5 mice/group) weighing between 20-30 grams are utilized. The initial reaction time of these mice is determined once, and the reaction time of each group is then averaged. The mice are then administered the vehicle and/or the compound to be tested by the oral, intraperitoneal or subcutaneous route. The average reaction time of each group is determined again at 30, 60 and 90 minutes after compound administration and is compared to controls. Reaction time is recorded as percent changes from control. All groups are averaged before and after treatment. A combined reaction time average (recorded as percent change of reaction time threshhold from controls) for all three periods is plotted against does on graph paper, and a curve is drawn. The ED50 is read from this curve.

With `O=C(O)Cc1ccc2c(c1)sc1ccc(Cl)cc12` [8-chloro-dibenzothiophene-3-acetic acid], in assay [1], the ED30 is 1.8 mg/kg/day. Further, the ED50 in the assay on mice came out at 120 mg/kg.
